Data as given in patent US6589937B1, “Peptides and nootropic agent” (Kabushiki Kaisha Yakult Honsha, priority 1996, dated 2003).
Where a SMILES comes first, the peptide text is derived from it. [ ]: non-standard residue; d: D form. The star is where a group is joined. X1 = N=C(N)NCCC[C@H](N)C(=O)N[C@@H](Cc1c[nH]cn1)C(=O)N1CCC[C@H]1C(=O)N[C@@H](CS*)C(=O)O; pGlu = O=C1CC[C@@H](C(=O)O)N1

Assays:
[1] = type: in vitro ADME, rat
Method: C-AVP 4-9 series compound can be hydrolyzed in brain by the action of prolyl endopeptidase, and it is considered that they are converted to AVP 4-9.
Therefore, 500 μM of C-AVP 4-9-000 were incubated (6 hr., 37° C.) with a rat cerebral homogenate (100 μg/rat) in the presence or in the absence of carbobenzoyloxy prolyl-prolinal (ZPP, 20 μM) as known as a potent inhibitor for propyl endopeptitase. After incubation metabolites were extracted with methanol. The metabolites were analyzed by HPLC. Further, ZPP is a specific inhibitor for prolyl endopeptidase. After methanol extraction, the metabolites were quantitated by the separation with HPLC.

[2] = Evaluation of brain transition (CNS distribution after i.v. administration); details: mouse, in vivo, iv
Method: C-AVP 4-9-000 (389 Ci/mmol) labeled with ^125I by the chloramine-T method was administered (i.v.) to mice in 1 μCi, ^125I-C-AVP 4-9-000 in plasma was quantitated by separating the methanol extract using Radio-HPLC.
In the case of AS22, the radioactivity contained in the trifluoroacetic acid precipitate fraction was made the ^125I-AS22 amount. Further, ^125I-C-AVP 4-9-000 was quantitated by separating the methanol extract using Radio-HPLC.

[3] = test system: rats; test: Passive avoidance test, administration 180 min before retention test; type: in vivo; details: rat, s.c., administered 3 hr before retention test
Method: The test solution in which each of these test drugs dissolved in saline was subcutaneously administered to rats. As to animals, male Wister rats (aged 7-9 weeks) were bought from Japan Charles River (JCR) and used after the preliminary feeding for more than one week. At the time of the preliminary feeding it lighted up from AM 8.00 to PM 8.00.
It was carried out by partially modifying the method of Ader R. R. (Psycon. Sci., 26, p125-128, 1972). Namely, rats were let stay in a light room of the passive avoidance test apparatus consisting of a light and dark rooms, and were let move freely for 2 min. After 45 min., the rats were let stay again in the light room. When the rats went into the dark room, the electric current 0.3 mA was applied for 30 sec. by Muromachikikai SGS-002 on the floor of the dark room. Further, in all processes of the experiment the rats were let move freely between the dark room and the light room. Each peptide was subcutaneously administered at 23 hr. (1 hr. before the retention test) after the electric shock. Subsequently, the rats were let stay in the light room after 1 hr. (24 hr. after the electric shock), the time (latency) when the rats went into the dark room was measured (retention test).
The test was carried out according to the test 2 except that the administration of the test solution was made at 21 hr. […]

[4] = PI value by isoelectrofocusing (capillary electrophoresis); type: physicochemical; details: peptide 5 μg, UV 214 nm
Method: Further, the PI value was analyzed by the isoelectrofocusing method for the peptide 5 μg using a capillary electrophoretic apparatus (Beckman P/ACE 5000) and an isoelectrofocusing kit (eCAP 3-10, Beckman). The detection was carried out by UV 214 nm.

Compound | formation of AVP 4-9 after 6 hour's incubation [1] | parent remaining after 6 hour's incubation ([1]; rat, brain homogenate, 6 h) | transition into brain [2] | effectiveness in passive avoidance (latency) [3] | PI values [4]
N=C(N)NCCC[C@H](NC(=O)[C@@H]1CCCN1C(=O)[C@H](CSSC[C@H](NC(=O)[C@@H]1CCCN1C(=O)[C@H](Cc1c[nH]cn1)NC(=O)[C@@H](N)CCCNC(=N)N)C(=O)O)NC(=O)[C@H](CC(N)=O)NC(=O)[C@@H]1CCC(=O)N1)C(=O)NCC(N)=O [C-AVP 4-9-000] ([pGlu]NC(X1)PRG-NH2) | the formation of AVP 4-9 was observed | scarcely remained | transited into brain in a sufficient concentration |  | 
pGlu-Asn-Cys-Pro-Arg-Gly-NH2 ([pGlu]NCPRG-NH2) [AVP 4-9, 4-9 fragment of arginine vasopressin, control drug] |  |  |  | did not show any significant effectiveness | 9.27
